Source: ChEMBL document CHEMBL1122489, “Pyrimidine derivatives. 4. Synthesis and antihypertensive activity of 4-amino-2-(4-cinnamoylpiperazino)-6,7-dimethoxyquinazoline derivatives” (J Med Chem, 1983)

How the values were obtained:
Format in all cases: functional
Rattus norvegicus [1] = test: Maximum percent decrease in blood pressure in SHR dosed at 3 mg/kg (hour post dose in parentheses)
Rattus norvegicus [2] = test: Antihypertensive activity rating in conscious SHR after 3 h post dose at 3 mg/kg (po)
Rattus norvegicus [3] = test: Antihypertensive activity rating in conscious SHR after 6 hr post dose at 3 mg/kg (po)
Rattus norvegicus [4] = test: Antihypertensive activity rating in conscious SHR after 3 hr post dose at 0.3 mg/kg (po)
[5] = Potency ratio in rat thoracic aorta
Rattus norvegicus [6] = test: Antihypertensive activity rating in conscious SHR after 24 hr post dose at 1 mg/kg (po)
Rattus norvegicus [7] = test: Antihypertensive activity rating in conscious SHR after 24 hr post dose at 0.3 mg/kg (po)
Rattus norvegicus [8] = test: Effect on blood pressure in renal hypertensive rats dosed at 3 mg/kg after 3 h
Rattus norvegicus [9] = test: Effect on blood pressure in renal hypertensive rats dosed at 3 mg/kg after 1 h
Rattus norvegicus [10] = test: Effect on blood pressure (initial) in renal hypertensive rats dosed at 10 mg/kg
Rattus norvegicus [11] = test: Antihypertensive activity rating in conscious SHR after 6 hr post dose at 1 mg/kg (po)
Rattus norvegicus [12] = test: Antihypertensive activity rating in conscious SHR after 1 hr post dose at 0.3 mg/kg (po)
Rattus norvegicus [13] = test: Effect on blood pressure in renal hypertensive rats dosed at 10 mg/kg after 3 h
Rattus norvegicus [14] = test: Antihypertensive activity rating in conscious SHR after 1 hr post dose at 3 mg/kg (po)
Rattus norvegicus [15] = test: Effect on blood pressure in renal hypertensive rats dosed at 10 mg/kg after 6 h
Rattus norvegicus [16] = test: Antihypertensive activity rating in conscious SHR after 6 hr post dose at 0.3 mg/kg (po)
Rattus norvegicus [17] = species on record: Rattus norvegicus; test: Compound was tested for alpha-adrenoceptor blocking activity by its ability to antagonize norepinephrine contraction in the rat thoracic aorta; conditions: read-out: pA2 (converted)
Rattus norvegicus [18] = test: Antihypertensive activity rating in conscious SHR after 3 hr post dose at 1 mg/kg (po)
Rattus norvegicus [19] = test: Effect on blood pressure in renal hypertensive rats dosed at 3 mg/kg after 6 h
Rattus norvegicus [20] = test: Maximum percent decrease in blood pressure in SHR dosed at 0.3 mg/kg (hour post dose in parentheses)
Rattus norvegicus [21] = test: Effect on blood pressure in renal hypertensive rats dosed at 3 mg/kg after 24 h
Rattus norvegicus [22] = test: Antihypertensive activity rating in conscious SHR after 24 hr post dose at 3 mg/kg (po)
Rattus norvegicus [23] = test: Maximum percent decrease in blood pressure in SHR dosed at 1 mg/kg (hour post dose in parentheses)
Rattus norvegicus [24] = test: Effect on blood pressure in renal hypertensive rats dosed at 10 mg/kg after 1 h
Rattus norvegicus [25] = test: Antihypertensive activity rating in conscious SHR after 1 hr post dose at 1 mg/kg (po)
Rattus norvegicus [26] = test: Effect on blood pressure in renal hypertensive rats dosed at 10 mg/kg after 24 h
Rattus norvegicus [27] = test: Effect on mean blood pressure (initial) in renal hypertensive rats dosed at 3 mg/kg
Rattus norvegicus [28] = test: Effect on blood pressure (initial) in renal hypertensive rats dosed at 10mg/kg, po
Rattus norvegicus [29] = test: Effect on mean blood pressure (initial) in renal hypertensive rats dosed at 3 mg/kg, po
Rattus norvegicus [30] = test: Effect on blood pressure in renal hypertensive rats dosed at 10mg/kg, po after 1 h
Rattus norvegicus [31] = test: Effect on blood pressure in renal hypertensive rats dosed at 3 mg/kg, po after 3 h
Rattus norvegicus [32] = test: Effect on blood pressure in renal hypertensive rats dosed at 10mg/kg, po after 6 h
Rattus norvegicus [33] = test: Effect on blood pressure in renal hypertensive rats dosed at 3 mg/kg, po after 1 h
Rattus norvegicus [34] = test: Effect on blood pressure in renal hypertensive rats dosed at 10 mg/kg, po after 3 h
Rattus norvegicus [35] = test: Effect on blood pressure in renal hypertensive rats dosed at 3 mg/kg, po after 24 h
Rattus norvegicus [36] = test: Effect on blood pressure in renal hypertensive rats dosed at 10 mg/kg, po after 24 h
Rattus norvegicus [37] = test: Effect on blood pressure in renal hypertensive rats dosed at 3 mg/kg, po after 6 h

Compound | Decrease (Rattus norvegicus [1]) [%] | Activity (Rattus norvegicus [2]) | Activity (Rattus norvegicus [3]) | Activity (Rattus norvegicus [4]) | Ratio [5] | Activity (Rattus norvegicus [6]) | Activity (Rattus norvegicus [7]) | Activity (Rattus norvegicus [11]) | Activity (Rattus norvegicus [12]) | Activity (Rattus norvegicus [14]) | Activity (Rattus norvegicus [16]) | Kb (Rattus norvegicus [17]) [nM] | Activity (Rattus norvegicus [18]) | Decrease (Rattus norvegicus [20]) [%] | Activity (Rattus norvegicus [22]) | Decrease (Rattus norvegicus [23]) [%] | Activity (Rattus norvegicus [25]) | also measured
COc1cc2nc(N3CCN(C(=O)/C=C/c4ccco4)CC3)nc(N)c2cc1OC.Cl | 41 | 2 | 2 | 1 | 0.4 | 0 | 0 | 2 | 1 | 3 | 1 | 0.141 | 1 | 15 | 0 | 28 | 2 | Mean blood pressure (Rattus norvegicus [8]): -16.9 mmHg; Mean blood pressure (Rattus norvegicus [9]): -17.1 mmHg; Mean blood pressure (Rattus norvegicus [10]): 181 mmHg; Mean blood pressure (Rattus norvegicus [13]): -16.3 mmHg; Mean blood pressure (Rattus norvegicus [15]): -17.4 mmHg; Mean blood pressure (Rattus norvegicus [19]): -18.3 mmHg; Mean blood pressure (Rattus norvegicus [21]): -5.2 mmHg; Mean blood pressure (Rattus norvegicus [24]): -17.9 mmHg; Mean blood pressure (Rattus norvegicus [26]): -11.7 mmHg; Mean blood pressure (Rattus norvegicus [27]): 193 mmHg
COc1cc2nc(N3CCN(C(=O)c4ccco4)CC3)nc(N)c2cc1OC.Cl [PRAZOSIN HYDROCHLORIDE] | 27 | 1 | 1 | 1 | 1 | 0 | 0 | 1 | 1 | 2 | 1 | 0.0513 | 2 | 19 | 0 | 25 | 2 | Mean blood pressure (Rattus norvegicus [28]): 187 mmHg; Mean blood pressure (Rattus norvegicus [29]): 197 mmHg; Mean blood pressure (Rattus norvegicus [30]): -25.6 mmHg; Mean blood pressure (Rattus norvegicus [31]): -15.5 mmHg; Mean blood pressure (Rattus norvegicus [32]): -14.7 mmHg; Mean blood pressure (Rattus norvegicus [33]): -17.9 mmHg; Mean blood pressure (Rattus norvegicus [34]): -17.6 mmHg; Mean blood pressure (Rattus norvegicus [35]): -3.3 mmHg; Mean blood pressure (Rattus norvegicus [36]): -8.9 mmHg; Mean blood pressure (Rattus norvegicus [37]): -14.5 mmHg
